# Assay results reported in patent publication US9458153B2, “Dihydroquinolizinones for the treatment and prophylaxis of hepatitis B virus infection” (Hoffmann-La Roche Inc., priority 2014, dated 2016).
# Experiments:
# HBV DNA = HBV DNA assay (real-time qPCR/TaqMan of extracellular HBV DNA copy number, HepG2.2.15 cells); format: cell-based; details: Anti HBV DNA production activity in HepG2.2.15 cells, supernatant collected six days after initial administration
# Protocol: HepG2.2.15 cells (Acs et al. Proc Natl Acad Sci USA, 84, (1987), 4641-4), a constitutively HBV-expressing cell line were cultured in DMEM+Glutamax-I medium (Invitrogen, Carlsbad, Calif., USA), supplemented with 10% fetal bovine serum (Invitrogen) and G418 (Invitrogen) at a final concentration of 200 mg/L and maintained in 5% CO2 at 37° C.
# The assay employs real-time qPCR (TaqMan) to directly measure extracellular HBV DNA copy number. HepG2.2.15 cells were plated in 96-well microtiter plates. Only the interior wells were utilized to reduce “edge effects” observed during cell culture, the exterior wells were filled with complete medium to help minimize sample evaporation. On the following day, the HepG2.2.15 cells were washed and the medium was replaced with complete medium containing various concentrations of a test compound in triplicate. 3TC was used as the positive control, while media alone was added to cells as a negative control (virus control, VC). Three days later, the culture medium was replaced with fresh medium containing the appropriately diluted drug. Six days following the initial administration of the test compound, the cell culture supernatant was collected, treated with pronase and then used in a real-time qPCR/TaqMan assay to determine HBV DNA copy numbers. Antiviral activity was calculated from the reduction in HBV DNA levels (IC50).
# The compounds of the present invention were tested for their capacity to inhibit HBV DNA as described herein.
# HBsAg = HBsAg assay (chemiluminescence immunoassay of secreted HBsAg in HepG2.2.15 culture supernatant); format: cell-based, HBV; details: HepG2.2.15 cells, CLIA kit
# In short: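 IC50 came from dose-response curves of HBsAg in culture supernatant, measured semi-quantitatively by chemiluminescent immunoassay. The HBV-producing HepG2.2.15 line was dosed in duplicate with a three-fold compound dilution series, with DMSO at 1% final and DMSO alone as the no-drug control.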
# [1] = HBsAg secretion reduced by 50% vs no drug control
# [2] = Hepatitis B virus, HepG2.2.15, 144 h
# [3] = Hepatitis B virus, HepG2.2.15, HBsAg secretion reduced by 50% vs no drug control
Compound,IC50 (HBV DNA),IC50 (HBsAg; [1]),IC50 (HBV DNA; [2]),IC50 (HBsAg; [3])
"CCOc1cc2c(cc1OCC)-c1cc(=O)c(C(=O)O)cn1C(CC)C2 (single isomer, unassigned; (+)) [Example 6, (+)-9,10-diethoxy-6-ethyl-2-oxo-6,7-dihydrobenzo[a]quinolizine-3-carboxylic acid]",6 nM,,,
"CCC1Cc2cc(OCC(F)(F)F)c(OC)cc2-c2cc(=O)c(C(=O)O)cn21 (single isomer, unassigned; (+)) [Example 11, (+)-6-ethyl-10-methoxy-2-oxo-9-(2,2,2-trifluoroethoxy)-6,7-dihydrobenzo[a]quinolizine-3-carboxylic acid]",,17 nM,4 nM,
"CCCOc1cc2c(cc1OC)-c1cc(=O)c(C(=O)O)cn1C(CC)C2 (single isomer, unassigned; (+)) [Example 79, (+)-6-ethyl-10-methoxy-2-oxo-9-propoxyl-6,7-dihydrobenzo[a]quinolizine-3-carboxylic acid]",,4 nM,2 nM,
"COc1cc2c(cc1OC)-c1cc(=O)c(C(=O)O)cn1C(C(C)C)C2 (single isomer, unassigned; (+)) [Example 99, (+)-6-isopropyl-9,10-dimethoxy-2-oxo-6,7-dihydrobenzo[a]quinolizine-3-carboxylic acid]",,16 nM,3 nM,
"COCCOc1cc2c(cc1Cl)-c1cc(=O)c(C(=O)O)cn1C(C(C)C)C2 (single isomer, unassigned; (+)) [Example 108, (+)-10-chloro-6-isopropyl-9-(2-methoxyethoxy)-2-oxo-6,7-dihydrobenzo[a]quinolizine-3-carboxylic acid]",,3 nM,2 nM,
"COCCCOc1cc2c(cc1Cl)-c1cc(=O)c(C(=O)O)cn1C(C(C)C)C2 (single isomer, unassigned; (+)) [Example 121, (+)-10-chloro-6-isopropyl-9-(3-methoxypropoxy)-2-oxo-6,7-dihydrobenzo[a]quinolizine-3-carboxylic acid]",,2 nM,< 0.1 nM,
"COCCCOc1cc2c(cc1OC)-c1cc(=O)c(C(=O)O)cn1C(C(C)C)C2 (single isomer, unassigned; (+)) [Example 124, (+)-10-methoxy-6-isopropyl-9-(3-methoxypropoxy)-2-oxo-6,7-dihydrobenzo[a]quinolizine-3-carboxylic acid]",,2 nM,< 0.1 nM,
"COc1cc2c(cc1OCCN1CCOCC1)CC(C(C)(C)C)n1cc(C(=O)O)c(=O)cc1-2 (single isomer, unassigned; (+)) [Example 190, (+)-6-tert-butyl-10-methoxy-9-(2-morpholinoethoxy)-2-oxo-6,7-dihydrobenzo[a]quinolizine-3-carboxylic acid]",,6 nM,2 nM,
"COCCCOc1cc2c(cc1Cl)-c1cc(=O)c(C(=O)O)cn1C(C1(C)CC1)C2 (single isomer, unassigned; (+)) [Example 206, (+)-10-chloro-9-(3-methoxypropoxy)-6-(1-methylcyclopropyl)-2-oxo-6,7-dihydrobenzo[a]quinolizine-3-carboxylic acid]",,1 nM,0.1 nM,
"COCCCOc1cc2c(cc1OC)-c1cc(=O)c(C(=O)O)cn1C(C1(C)CC1)C2 (single isomer, unassigned; (+)) [Example 209, (+)-10-methoxy-9-(3-methoxypropoxy)-6-(1-methylcyclopropyl)-2-oxo-6,7-dihydrobenzo[a]quinolizine-3-carboxylic acid]",,1 nM,0.3 nM,
"CCOc1cc2c(cc1Cl)-c1cc(=O)c(C(=O)O)cn1C(CC)C2 (single isomer, unassigned; (-)) [Example 119, (−)-10-chloro-9-ethoxy-6-ethyl-2-oxo-6,7-dihydrobenzo[a]quinolizine-3-carboxylic acid]",,330 nM,2 nM,
"CCOc1cc2c(cc1OCC)-c1cc(=O)c(C(=O)O)cn1C(CC)C2 (centres unmarked) [Example 5, 9,10-diethoxy-6-ethyl-2-oxo-6,7-dihydrobenzo[a]quinolizine-3-carboxylic acid]",,18 nM,9 nM,
"CCC1Cc2cc(OCC3CC3)c(OC)cc2-c2cc(=O)c(C(=O)O)cn21 (centres unmarked) [Example 30, 9-(cyclopropylmethoxy)-6-ethyl-10-methoxy-2-oxo-6,7-dihydrobenzo[a]quinolizine-3-carboxylic acid]",,24 nM,2 nM,
"CCC1Cc2cc(OCC(C)C)c(OC)cc2-c2cc(=O)c(C(=O)O)cn21 (centres unmarked) [Example 33, 6-ethyl-9-isobutoxy-10-methoxy-2-oxo-6,7-dihydrobenzo[a]quinolizine-3-carboxylic acid]",,8 nM,3 nM,
"CCOc1cc2c(cc1OCC)-c1cc(=O)c(C(=O)O)cn1CC2 [Example 76, 9,10-diethoxy-2-oxo-6,7-dihydrobenzo[a]quinolizine-3-carboxylic acid]",,,130 nM,350 nM
"CCCOc1cc2c(cc1OC)-c1cc(=O)c(C(=O)O)cn1C(CC)C2 (centres unmarked) [Example 78, 6-ethyl-10-methoxy-2-oxo-9-propoxy-6,7-dihydrobenzo[a]quinolizine-3-carboxylic acid]",4 nM,,,
"COc1cc2c(cc1OCCCn1cncn1)CC(C(C)(C)C)n1cc(C(=O)O)c(=O)cc1-2 (centres unmarked) [Example 217, 6-tert-butyl-10-methoxy-2-oxo-9-[3-(1,2,4-triazol-1-yl)propoxy]-6,7-dihydrobenzo[a]quinolizine-3-carboxylic acid]",,,,34 nM
"COc1cc2c(cc1OCCCC(=O)O)CC(C(C)(C)C)n1cc(C(=O)O)c(=O)cc1-2 (centres unmarked) [Example 218, 6-tert-butyl-9-(3-carboxypropoxy)-10-methoxy-2-oxo-6,7-dihydrobenzo[a]quinolizine-3-carboxylic acid]",,,,145 nM
